According to ChEMBL document CHEMBL1201862, “PubChem BioAssay data set” (2004):
Activity calls are given as the source filed them.

Assays:
[1] = biological target: T1, Protein RecA (Mycobacterium tuberculosis, UniProt P9WHJ3); experiment: Fluorescence Cell-Free Homogeneous Dose Retest to Identify Inhibitors of RecA-Intein Splicing Activity. [Related pubchem assays (depositor defined):AID2097, AID2223, AID489010, AID492950]; format: functional
T1 sequence (P9WHJ3 whole entry): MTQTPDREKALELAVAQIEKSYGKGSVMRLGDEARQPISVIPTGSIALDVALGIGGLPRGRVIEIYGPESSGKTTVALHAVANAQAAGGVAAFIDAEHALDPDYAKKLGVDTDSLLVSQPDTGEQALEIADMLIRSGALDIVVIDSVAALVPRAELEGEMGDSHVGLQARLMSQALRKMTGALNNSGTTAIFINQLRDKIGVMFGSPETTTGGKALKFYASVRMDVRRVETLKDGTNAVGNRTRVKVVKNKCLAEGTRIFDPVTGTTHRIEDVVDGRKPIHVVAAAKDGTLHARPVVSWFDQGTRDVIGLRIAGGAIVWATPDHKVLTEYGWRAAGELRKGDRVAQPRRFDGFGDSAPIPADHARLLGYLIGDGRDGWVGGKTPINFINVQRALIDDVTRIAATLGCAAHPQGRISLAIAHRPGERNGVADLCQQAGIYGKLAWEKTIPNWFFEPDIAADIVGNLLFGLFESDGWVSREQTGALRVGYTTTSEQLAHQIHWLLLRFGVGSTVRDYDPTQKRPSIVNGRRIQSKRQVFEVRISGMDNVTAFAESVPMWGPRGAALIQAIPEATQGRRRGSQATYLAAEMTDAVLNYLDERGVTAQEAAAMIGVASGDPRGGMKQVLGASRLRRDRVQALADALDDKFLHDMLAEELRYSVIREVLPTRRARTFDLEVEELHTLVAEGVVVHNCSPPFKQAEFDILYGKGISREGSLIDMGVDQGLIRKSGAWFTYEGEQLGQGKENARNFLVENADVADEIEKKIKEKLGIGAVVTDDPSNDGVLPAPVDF

[2] = Luminescence Cell-Based Dose Retest to Confirm Inhibitors of Cancer Stem Cells. [Related pubchem assays (depositor defined):AID2717, AID2721]; format: functional; details: Homo sapiens
[3] = biological target: T2, CAAX prenyl protease 2 (Saccharomyces cerevisiae S288c, UniProt Q03530); format: biochemical
T2 sequence (Q03530 whole entry): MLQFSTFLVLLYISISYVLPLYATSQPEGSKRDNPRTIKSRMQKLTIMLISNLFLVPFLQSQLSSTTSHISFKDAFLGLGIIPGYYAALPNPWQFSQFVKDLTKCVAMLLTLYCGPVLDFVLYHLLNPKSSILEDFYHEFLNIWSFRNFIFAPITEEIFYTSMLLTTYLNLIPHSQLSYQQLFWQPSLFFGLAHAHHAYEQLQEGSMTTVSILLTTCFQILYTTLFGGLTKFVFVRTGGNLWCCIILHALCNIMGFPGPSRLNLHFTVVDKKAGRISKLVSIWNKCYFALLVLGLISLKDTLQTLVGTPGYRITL

[4] = biological target: Disintegrin and metalloproteinase domain-containing protein 17 (Homo sapiens, UniProt P78536); experiment: exosite inhibitors of ADAM17, dose response, biochemical (AID 743260)
[5] = biological target: Trypsin (Sus scrofa, UniProt P00761); experiment: trypsin protease activity blockade – biochemical, quenched peptide fluorescence, cherry-pick, selectivity assay for Rce1 protease inhibitor project, dose response (AID 488789)
[6] = biological target: T3, Replicative DNA helicase DnaB (Mycobacterium tuberculosis, UniProt P9WMR3); experiment: DnaB intein splicing inhibitors, dose response, biochemical, cell-free fluorescence (AID 449749); format: functional
T3 sequence (P9WMR3 whole entry): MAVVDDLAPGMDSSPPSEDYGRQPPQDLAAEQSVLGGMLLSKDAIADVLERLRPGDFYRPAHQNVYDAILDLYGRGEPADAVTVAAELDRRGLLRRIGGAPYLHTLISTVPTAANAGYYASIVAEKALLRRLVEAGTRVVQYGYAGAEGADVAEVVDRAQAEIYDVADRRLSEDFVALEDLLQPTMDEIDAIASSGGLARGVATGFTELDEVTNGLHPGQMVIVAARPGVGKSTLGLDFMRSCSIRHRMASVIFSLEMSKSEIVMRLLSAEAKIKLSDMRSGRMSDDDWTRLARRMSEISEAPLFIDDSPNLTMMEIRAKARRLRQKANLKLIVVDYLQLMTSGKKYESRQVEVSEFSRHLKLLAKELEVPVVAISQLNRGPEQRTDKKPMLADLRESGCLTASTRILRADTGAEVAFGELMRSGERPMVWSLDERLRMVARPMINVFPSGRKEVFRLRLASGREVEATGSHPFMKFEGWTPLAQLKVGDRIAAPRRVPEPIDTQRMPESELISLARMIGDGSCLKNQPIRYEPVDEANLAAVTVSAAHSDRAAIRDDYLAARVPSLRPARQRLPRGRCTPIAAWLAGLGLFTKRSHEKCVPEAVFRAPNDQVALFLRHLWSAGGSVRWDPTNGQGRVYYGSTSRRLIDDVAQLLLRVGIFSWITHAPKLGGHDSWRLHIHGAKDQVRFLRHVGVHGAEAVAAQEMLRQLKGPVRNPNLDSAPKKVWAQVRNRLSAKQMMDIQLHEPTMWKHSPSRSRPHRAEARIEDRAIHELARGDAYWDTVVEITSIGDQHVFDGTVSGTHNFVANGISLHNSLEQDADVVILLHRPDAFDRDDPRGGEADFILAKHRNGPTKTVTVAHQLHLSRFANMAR

[7] = inhibition of ADAM10 peptide cleavage – biochemical, FRET peptide substrate, recombinant human ADAM10, selectivity assay for ADAM17 exosite inhibitor project, dose response (AID 743259);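 also: ADAM10 enzyme cleaving a FRET peptide substrate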
[8] = biological target: T4, Alkaline phosphatase, tissue-nonspecific isozyme (Homo sapiens, UniProt P05186); experiment: potency against alkaline phosphatase TNAP – biochemical, luminescent, dose response, SAR follow-up (AID 1056)
T4 sequence (P05186 whole entry): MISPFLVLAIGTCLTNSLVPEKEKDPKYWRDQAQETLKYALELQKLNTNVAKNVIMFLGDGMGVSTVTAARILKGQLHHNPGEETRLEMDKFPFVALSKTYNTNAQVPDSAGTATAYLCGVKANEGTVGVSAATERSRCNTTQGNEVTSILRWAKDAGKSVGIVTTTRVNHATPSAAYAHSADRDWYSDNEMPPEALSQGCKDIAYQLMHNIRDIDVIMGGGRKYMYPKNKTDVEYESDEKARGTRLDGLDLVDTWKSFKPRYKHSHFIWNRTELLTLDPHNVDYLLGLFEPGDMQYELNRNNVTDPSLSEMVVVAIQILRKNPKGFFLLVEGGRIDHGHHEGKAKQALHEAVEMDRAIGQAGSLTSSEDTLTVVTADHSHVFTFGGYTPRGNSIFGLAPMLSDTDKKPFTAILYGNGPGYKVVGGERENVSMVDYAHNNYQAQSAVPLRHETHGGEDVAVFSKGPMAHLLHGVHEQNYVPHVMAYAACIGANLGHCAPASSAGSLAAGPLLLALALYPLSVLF

[9] = biological target: Alkaline phosphatase, placental type (Homo sapiens, UniProt P05187); experiment: human placental alkaline phosphatase inhibition – biochemical, luminescence, confirmation (AID 1512); format: functional
[10] = system: Vero; experiment: cells; format: functional, cell-based; details: Chlorocebus sabaeus
[11] = system: Vero; experiment: cells; format: functional; details: Chlorocebus sabaeus
[12] = protection from phage-mediated lysis, alamar blue read-out – E. coli UTI89, K1F phage, bacterial capsule biogenesis inhibitors (AID 488966); format: functional
[13] = biological target: G-protein coupled receptor 55 (Homo sapiens, UniProt Q9Y2T6); experiment: selective activators of receptor GPR55 – imaging, U2OS cells, beta-arrestin-GFP redistribution, primary screen (AID 1961); format: functional
Chain of G-protein coupled receptor 55 (Q9Y2T6 whole entry): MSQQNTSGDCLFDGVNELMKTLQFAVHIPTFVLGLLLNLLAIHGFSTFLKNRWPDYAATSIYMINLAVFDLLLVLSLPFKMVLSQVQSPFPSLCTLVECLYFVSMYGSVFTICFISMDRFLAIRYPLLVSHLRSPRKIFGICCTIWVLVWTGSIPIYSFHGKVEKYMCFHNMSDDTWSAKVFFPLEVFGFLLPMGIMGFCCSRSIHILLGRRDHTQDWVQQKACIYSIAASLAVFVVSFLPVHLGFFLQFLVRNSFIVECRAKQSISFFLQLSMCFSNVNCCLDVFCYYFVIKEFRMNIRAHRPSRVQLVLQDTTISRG

Chain of Alkaline phosphatase, placental type (P05187 whole entry): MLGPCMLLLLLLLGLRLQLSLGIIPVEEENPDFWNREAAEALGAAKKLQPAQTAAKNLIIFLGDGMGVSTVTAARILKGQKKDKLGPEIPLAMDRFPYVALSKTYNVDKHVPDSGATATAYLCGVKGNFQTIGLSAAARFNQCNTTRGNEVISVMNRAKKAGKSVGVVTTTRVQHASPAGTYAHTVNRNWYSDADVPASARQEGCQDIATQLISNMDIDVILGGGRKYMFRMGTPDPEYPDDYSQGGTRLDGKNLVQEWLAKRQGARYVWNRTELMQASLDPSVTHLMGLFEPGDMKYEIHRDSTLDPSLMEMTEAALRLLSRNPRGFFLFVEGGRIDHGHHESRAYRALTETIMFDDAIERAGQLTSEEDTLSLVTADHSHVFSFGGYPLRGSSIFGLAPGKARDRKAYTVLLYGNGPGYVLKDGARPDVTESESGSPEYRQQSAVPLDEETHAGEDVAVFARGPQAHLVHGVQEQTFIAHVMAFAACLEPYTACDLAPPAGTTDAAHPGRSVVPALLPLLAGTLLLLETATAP
Chain of Trypsin (P00761 whole entry): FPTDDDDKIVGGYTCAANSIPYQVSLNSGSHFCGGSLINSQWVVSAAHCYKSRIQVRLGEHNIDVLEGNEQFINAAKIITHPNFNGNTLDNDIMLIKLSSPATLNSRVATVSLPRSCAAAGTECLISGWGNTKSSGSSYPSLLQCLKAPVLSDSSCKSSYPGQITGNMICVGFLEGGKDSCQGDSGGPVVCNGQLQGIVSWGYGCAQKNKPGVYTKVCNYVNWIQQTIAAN
Chain of Disintegrin and metalloproteinase domain-containing protein 17 (P78536 whole entry, the tested form may be a part): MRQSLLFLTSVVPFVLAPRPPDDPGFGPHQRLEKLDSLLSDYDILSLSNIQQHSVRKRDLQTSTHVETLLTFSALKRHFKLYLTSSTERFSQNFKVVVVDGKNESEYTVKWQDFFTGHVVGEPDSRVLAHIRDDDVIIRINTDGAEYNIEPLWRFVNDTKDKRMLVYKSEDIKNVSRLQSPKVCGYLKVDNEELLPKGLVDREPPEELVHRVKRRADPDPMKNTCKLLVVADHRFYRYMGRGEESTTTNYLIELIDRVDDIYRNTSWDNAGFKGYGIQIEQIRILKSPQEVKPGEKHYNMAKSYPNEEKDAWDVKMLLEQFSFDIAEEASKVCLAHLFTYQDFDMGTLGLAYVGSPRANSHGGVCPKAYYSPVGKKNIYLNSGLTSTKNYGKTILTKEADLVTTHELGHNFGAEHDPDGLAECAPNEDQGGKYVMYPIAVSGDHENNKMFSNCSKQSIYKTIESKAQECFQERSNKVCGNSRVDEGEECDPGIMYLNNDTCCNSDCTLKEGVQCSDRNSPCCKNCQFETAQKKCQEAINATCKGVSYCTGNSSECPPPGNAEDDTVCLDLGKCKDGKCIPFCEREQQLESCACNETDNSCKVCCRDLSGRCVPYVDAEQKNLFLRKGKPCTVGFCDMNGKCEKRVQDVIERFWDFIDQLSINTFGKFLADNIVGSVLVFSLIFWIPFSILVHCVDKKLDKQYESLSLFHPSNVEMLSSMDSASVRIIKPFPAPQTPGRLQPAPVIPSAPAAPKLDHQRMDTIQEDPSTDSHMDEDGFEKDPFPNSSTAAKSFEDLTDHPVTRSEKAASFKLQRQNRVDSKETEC

Compound: N=c1c2c(ncn1Cc1ccco1)Oc1ccc3ccccc3c1C2c1ccccc1 (stereo not drawn)
- EC50 [1]: 16.7 µM (active)
- AC50 [2]: 2.09 µM (active)
- AC50 [3]: 27.2 µM (active)
- IC50 [4]: > 69.5 µM (inactive)
- AC50 [5]: 7.73 µM (active)
- AC50 [6]: 7.51 µM (active)
- IC50 [7]: > 7.72 µM (active)

Compound: C=CCn1c(SCC(=O)c2ccc(O)c(O)c2)nnc1-c1ccc(C)cc1
- IC50 [8]: > 100 µM (inactive)
- IC50 [9]: 8.57 µM (active)

Compound: NCC1CCN(c2nc3ccccc3c3c2CCCC3)CC1
- IC50 [10]: > 25 µM (active)
- CC50 [11]: 19.2 µM (active)
- IC50 [12]: > 150 µM (active)

Compound: CCN(CC)c1ccc(/C=N/OCC(=O)Nc2cccc(C)c2)cc1
- EC50 [13]: > 32 µM (inactive)
